# Results as given in patent publication US20250327794A1, “FLUOROMETRIC METHODS FOR DETECTION OF ALLERGIC SENSITIVITY TO ENVIRONMENTAL, FOODSTUFF, AND MEDICAMENT STIMULANTS” (CELL SCIENCE SYSTEMS CORPORATION, priority 2022, published 2025).
# Columns and labels:
# Type in all cases: cell-based, human
# [1] = test system: granulocytes; test: Citrullinated histone H3 flow cytometry blood test (extracellular trap formation)
# Description: Detection of extracellular traps formation was incorporated to improve flow cytometry analysis of granulocyte subpopulations. […] This example describes detection of granulocyte activation following exposure of human blood to exogenous stimulant, using dihydrorhodamine 123, propidium iodide, and citrullinated histone H3 staining.
# Peripheral blood samples were collected, diluted, maintained, treated, lysed, and fixed as previously described. Samples were blocked as previously described and incubated with staining buffer containing a 1:400 dilution of Cit-H3 antibody (Cayman Chemical, Michigan, USA) for 30 min at RT. Following two wash steps, the samples were incubated with APC-conjugated secondary (1:200) (Columbia Biosciences, Maryland, USA) for 30 min and subsequent washing steps were performed to remove unbound antibodies. Cells were washed twice and resuspended in PBS prior to analysis using a BD Accuri C6 Flow Cytometer (BD Biosciences). Statistical analysis was performed using the FlowJo v10 (FlowJo). NETs were defined by the in-tandem use of the classis extracellular DNA/viability marker PI(+) and the extracellular trap marker Cit-H3(+). NET formation was quantified as a fold-change relative to the mean of the negative control samples.
# [2] = test system: neutrophils; test: Neutrophil activation: CD16 surface marker fluorescence (channel 2 FL2-A)
# Description: Dead cells were gated and removed using PI(+) viability marker. The cell surface marker CD33 was used to distinguish the lymphocyte population from the monocyte and granulocyte populations. The cell surface marker CD16 was used to distinguish neutrophil and eosinophil populations from the monocytes and lymphocyte populations. The cell surface marker CD123 was used to distinguish the basophil population. Activated granulocytes were observed using the granulocyte activation surface marker CD63(+). Activated basophil and eosinophil populations were observed using surface markers […], in-tandem with CD63(+). Activated basophils were observed using the surface marker profile of CD63(+)/CD203c(+). Activated eosinophils were observed using the surface marker profile of CD63(+)/CD193(+)/CD203c(+). Activated neutrophils were observed using the surface marker profile of CD63(+)/CD193(−)/CD203(−). Activation of subpopulations was quantified as fold-change compared to the mean of the negative control samples.
# Activation of neutrophils from human blood samples following exposure to exogenous stimulants was investigated using flow cytometry analysis of R123 fluorescence, as well as cell surface markers CD16, CD193, and CD123, and side scattering profiles. Density plots for RH 123 (channel 1; FL1-A), CD16 (channel 2; FL2-A), CD193 (channel 3, FL3-A), and CD123 (channel 4, FL4-A) following exposure to dust mite stimulant for 1.5 hours are shown in FIGS. 19A-19L (DHR 123 only: FIGS. 19A-19D; DHR 123+PMA stimulant: FIGS. 19E-19H; and DHR 123+DM stimulant: FIGS. 19I-19L). […] Histograms of CD16 fluorescence at 1.5 hours after stimulant exposure are shown in FIGS. 20A-20C (DHR 123 control: FIG. 20A, MFI=27956; DHR 123+PMA stimulant: FIG. 20B, MFI=11120; and DHR 123+DM stimulant: FIG. 20C, MFI=16358). […]
# [3] = test system: basophils; test: Basophil activation: RH 123 signal in CD123(+)/CD16(-) gated cells
# Description: Activation of basophils from human blood samples following exposure to exogenous stimulants was investigated using flow cytometry analysis of RH 123 fluorescence, as well as cell surface markers CD16 and CD193, and side scattering profiles. CD123 is a cell surface marker that is expressed on basophils and eosinophils. FIGS. 25A-25C show density plots of CD123 signals at channel 4 (FL4-A) for DHR 123 only (FIG. 25A), DHR 123+PMA stimulant (FIG. 25B), and DHR 123+DM stimulant exposed group (FIG. 25C) following exposure to stimulant for 1.5 hours. FIGS. 25D-25F show corresponding gated RH 123 results (MFI=2055, MFI=6388, and MFI=3023, respectively). FIGS. 26A-26C show density plots of CD123 signals at channel 4 (FL4-A) for DHR 123 control group (FIG. 26A), DHR 123 and dust mite stimulant-exposed group (FIG. 26B), and DHR 123 and ragweed pollen stimulant-exposed group (FIG. 26C) following exposure to stimulant for 2.5 hours. FIGS. 26D-26F show corresponding gated RH 123 results (MFI=1800, MFI=3299, and MFI=1270, respectively).
# Basophil population was selected by having CD123(+)/CD16(−) expression profiles, along with lower side scattering (shown in FIGS. 25A-25C and FIGS. 26A-26C as encircled). In contrast to reducing eosinophil population for different allergen treated groups, basophil population appeared stable over the experiment time period (1.5 hours and 2.5 hours).
# [4] = 1-3 hr incubation, DHR 123 and PMA
smiles,measurement,setting,value
"CCCCCCCCCCCCCC(=O)O[C@@H]1[C@@H](C)[C@@]2(O)[C@@H](C=C(CO)C[C@]3(O)C(=O)C(C)=C[C@@H]23)[C@@H]2C(C)(C)[C@]12OC(C)=O [PMA, Phorbol-12-Myristate-13-Acetate]",RH 123 (FL1-A) and PI (FL3-A) fluorescence signal compared with cell-only group,[1],higher
same,percentage cells positive for citrullinated histone H3 signals,[1]; after gating on FL3-A and FL4-A,high
same,"PI staining signal (channel 3, FL3-A)","[1]; repeat, 8 μL stimulant/100 μL blood",stronger signals
same,CD16 fluorescence signal intensity over time,[2]; [4],decreased signal intensity over time
same,expression of CD16 surface marker (in words),[2]; 1.5 hours after stimulant exposure,greatly reduced
same,mean fluorescent intensity (MFI) of CD16 surface marker (channel 2; FL2-A),"[2]; 1.5 hours exposure, DHR 123 only control MFI=27956",11120
same,CD123 signal over incubation time,[3]; [4],decreased
same,"gated RH 123 signal MFI, CD123 gated","[3]; 1.5 hours exposure, DHR 123 only control MFI=2055",6388
same,basophil activation (in words),[3]; RH 123 signal vs DHR 123 only control,induced the activation of basophils
